# Experimental data published in US20220305012A1, “L[…] TREATING SLEEP ISSUES” (EISAI R&D MANAGEMENT CO., LTD., priority 2019, published 2022).
# How the values were obtained:
# [1] = tested on: Subjects Having Insomnia Disorder; assay: Example 1: subjective wake after sleep onset (sWASO), Sleep Diary; assay type: in vivo, human
# From the text: As used herein, the term “subjective wake after sleep onset”, abbreviated as “sWASO”, means the sum of estimated minutes of wake during the night after initial sleep onset until the time the subject stopped trying to sleep for the night, operationalized as the time the subject got out of bed for the day. In some embodiments, sWASO is derived from data entered in a subject's Sleep Diary. As used herein, an “improvement of sWASO” means a reduction in sWASO.
# In some embodiments, sleep diaries were used to assess sleep parameters reported by subjects (i.e., subjective assessments) including subjective sleep onset latency (sSOL), subjective sleep efficiency (sSE), subjective WASO (sWASO), and subjective total sleep time (sTST). Subjects were instructed to complete the Sleep Diary developed based on the consensus Sleep Diary as described in Carney et al., “The consensus sleep diary: standardizing prospective sleep self-monitoring,” Sleep 2012; 35(2):287-302. In some embodiments, the Sleep Diary was used to assess the subject's global perception of quality of sleep on the previous night with the following question: “How would you rate the quality of your sleep last night?” Subjects rated the quality of their sleep on a scale from 1 to 9, with 1 being extremely poor and 9 being extremely good. In some embodiments, the Sleep Diary was used to assess subjective ratings of morning sleepiness with the following question: “How alert/sleepy do you feel this morning?” Subjects rated their sleepiness/alertness level on a Likert scale from 1 to 9, with 1 being extremely sleepy and 9 being extremely alert.
# sWASO—subjective wake after sleep onset: sum of estimated minutes of wake during the night after initial sleep onset until the time the subject stopped trying to sleep for the night, operationalized as the time the subject got out of bed for the day.
# Subjects were randomized in a double-blind manner and received either placebo, 5 mg of lemborexant, or 10 mg of lemborexant (approximately 1:1:1 randomization). All subjects underwent routine safety monitoring through the study, including assessments of treatment-emergent adverse events, 12-lead electrocardiograms, vital signs, weight, and clinical hematology and blood chemistry labs. Suicidality was assessed using the eC-SSRS.
# Treatment period 1 began with the first dose of randomized study medication (placebo, 5 mg of lemborexant, or 10 mg of lemborexant). Subjects completed sleep diaries daily in the morning, within one hour of waketime. The subjects were assessed by a clinician one month, two months, three months, and six months after initiation of Treatment period 1. The following assessments were conducted:
# This study had two key secondary endpoints. The first key secondary endpoint was the mean change from study baseline in subjective sleep efficiency at month 6. The second key secondary endpoint was the mean change from study baseline of subjective wake after sleep onset at month 6.
# [2] = tested on: Subjects Having Insomnia Disorder; assay: Example 1: Insomnia Severity Index Total Score (Items 1-7); assay type: in vivo, human
# From the text: As used herein, the term “Insomnia Severity Index”, abbreviated as “ISI”, is an index calculated using a 7-item, self-report questionnaire assessing the nature, severity, and impact of insomnia (see Bastien, C. H., et al. “Validation of the Insomnia Severity Index as an outcome measure for insomnia research.” Sleep Med. 2001; 2(4): 297-307). The questionnaire evaluates: (1) severity of sleep onset; (2) sleep maintenance; (3) early morning awakening problems; (4) sleep dissatisfaction; (5) interference caused by sleep difficulties with daytime functioning; (6) noticeability of sleep problems by others; and (7) distress caused by the sleep difficulties. A 5-point scale is used to rate each item (0=no problem to 4=very severe problem) yielding a total score from 0 to 28. Total ISI score (items (1)-(7)) and daytime functioning (items (4)-(7)) are analyzed separately.
# Month 1 Assessment: Standard safety assessments were performed on the subject. A blood sample was collected for determination of plasma concentration of lemborexant and its metabolites, and the ISI, FSS, PGI-Insomnia, EQ-5D-3L, and eC-SSR were completed.
# Month 3 Assessment: All assessments conducted at the Month 1 Assessment were repeated.
# Month 6 Assessment: All assessments conducted at the Month 1 Assessment were repeated, and subjects completed the WPAI-GH.
# [3] = 5 mg, change from Study Baseline after 1 Month
# [4] = 5 mg, change from Study Baseline after 3 Months
# [5] = 5 mg, change from Study Baseline after 6 Months
# [6] = 10 mg, change from Study Baseline after 1 Month
# [7] = 10 mg, change from Study Baseline after 3 Months
# [8] = 10 mg, change from Study Baseline after 6 Months
compound,measurement,setting,value
"Cc1ncc(OC[C@@]2(c3cccc(F)c3)C[C@H]2C(=O)Nc2ccc(F)cn2)c(C)n1 [Lemborexant, (1R,2S)-2-(((2,4-dimethylpyrimidin-5-yl)oxy)methyl)-2-(3-fluorophenyl)-N-(5-fluoropyridin-2-yl)cyclopropanecarboxamide]",subjective wake after sleep onset compared with placebo,"[1]; 5 mg and 10 mg, at the equivalent timepoint (Table 4)",greater reduction in mean subjective wake after sleep onset than subjects treated with placebo
same,"sWASO, Mean","[1]; 5 mg, First 7 Nights",113.53 min
same,"sWASO, Median","[1]; 5 mg, First 7 Nights",87.86 min
same,"sWASO, Mean","[1]; 5 mg, Month 1",107.07 min
same,"sWASO, Median","[1]; 5 mg, Month 1",85.29 min
same,"sWASO, Mean","[1]; 5 mg, Month 3",89.48 min
same,"sWASO, Median","[1]; 5 mg, Month 3",66.43 min
same,"sWASO, Mean","[1]; 5 mg, Month 6",81.79 min
same,"sWASO, Median","[1]; 5 mg, Month 6",60.00 min
same,"sWASO, Mean","[1]; 5 mg, Study Baseline",132.77 min
same,"sWASO, Median","[1]; 5 mg, Study Baseline",114.71 min
same,"sWASO Change from Study Baseline, Mean","[1]; 5 mg, after 1 Month",-23.42 min
same,"sWASO Change from Study Baseline, Median","[1]; 5 mg, after 1 Month",-19.29 min
same,"sWASO Change from Study Baseline, Mean","[1]; 5 mg, after 3 Months",-42.98 min
same,"sWASO Change from Study Baseline, Median","[1]; 5 mg, after 3 Months",-34.57 min
same,"sWASO Change from Study Baseline, Mean","[1]; 5 mg, after 6 Months",-51.45 min
same,"sWASO Change from Study Baseline, Median","[1]; 5 mg, after 6 Months",-44.02 min
same,"sWASO Change from Study Baseline, Mean","[1]; 5 mg, after 7 Nights",-20.21 min
same,"sWASO Change from Study Baseline, Median","[1]; 5 mg, after 7 Nights",-16.01 min
same,sWASO LSM treatment difference: Lemborexant/Placebo,[1]; [3],-5.514 min
same,sWASO LSM treatment difference: Lemborexant/Placebo,[1]; [4],-13.424 min
same,sWASO LSM treatment difference: Lemborexant/Placebo,[1]; [5],-17.474 min
same,sWASO LSM treatment difference: Lemborexant/Placebo,"[1]; 5 mg, change from Study Baseline after 7 Nights",-14.328 min
same,"sWASO, Mean","[1]; 10 mg, First 7 Nights",113.77 min
same,"sWASO, Median","[1]; 10 mg, First 7 Nights",92.29 min
same,"sWASO, Mean","[1]; 10 mg, Month 1",109.42 min
same,"sWASO, Median","[1]; 10 mg, Month 1",95.00 min
same,"sWASO, Mean","[1]; 10 mg, Month 3",95.66 min
same,"sWASO, Median","[1]; 10 mg, Month 3",70.00 min
same,"sWASO, Mean","[1]; 10 mg, Month 6",86.38 min
same,"sWASO, Median","[1]; 10 mg, Month 6",62.14 min
same,"sWASO, Mean","[1]; 10 mg, Study Baseline",136.83 min
same,"sWASO, Median","[1]; 10 mg, Study Baseline",120.57 min
same,"sWASO Change from Study Baseline, Mean","[1]; 10 mg, after 1 Month",-26.82 min
same,"sWASO Change from Study Baseline, Median","[1]; 10 mg, after 1 Month",-22.29 min
same,"sWASO Change from Study Baseline, Mean","[1]; 10 mg, after 3 Months",-39.42 min
same,"sWASO Change from Study Baseline, Median","[1]; 10 mg, after 3 Months",-36.07 min
same,"sWASO Change from Study Baseline, Mean","[1]; 10 mg, after 6 Months",-48.12 min
same,"sWASO Change from Study Baseline, Median","[1]; 10 mg, after 6 Months",-47.43 min
same,"sWASO Change from Study Baseline, Mean","[1]; 10 mg, after 7 Nights",-23.30 min
same,"sWASO Change from Study Baseline, Median","[1]; 10 mg, after 7 Nights",-20.71 min
same,sWASO LSM treatment difference: Lemborexant/Placebo,[1]; [6],-7.005 min
same,sWASO LSM treatment difference: Lemborexant/Placebo,[1]; [7],-10.079 min
same,sWASO LSM treatment difference: Lemborexant/Placebo,[1]; [8],-12.671 min
same,sWASO LSM treatment difference: Lemborexant/Placebo,"[1]; 10 mg, change from Study Baseline after 7 Nights",-16.720 min
same,insomnia severity index score compared with placebo,"[2]; 5 mg and 10 mg, at the equivalent timepoint (Tables 6 and 7: daytime functioning and total score)",greater decrease in insomnia severity index score than subjects treated with placebo
same,"ISI Total Score (Items 1-7), Mean","[2]; 5 mg, Month 1",12.6
same,"ISI Total Score (Items 1-7), Median","[2]; 5 mg, Month 1",12.0
same,"ISI Total Score (Items 1-7), Mean","[2]; 5 mg, Month 3",10.8
same,"ISI Total Score (Items 1-7), Median","[2]; 5 mg, Month 3",10.0
same,"ISI Total Score (Items 1-7), Mean","[2]; 5 mg, Month 6",9.6
same,"ISI Total Score (Items 1-7), Median","[2]; 5 mg, Month 6",9.0
same,"ISI Total Score (Items 1-7), Mean","[2]; 5 mg, Study Baseline",19.6
same,"ISI Total Score (Items 1-7), Median","[2]; 5 mg, Study Baseline",19.0
same,"ISI Total Score Change from Study Baseline, Mean","[2]; 5 mg, after 1 Month",−7.1
same,"ISI Total Score Change from Study Baseline, Median","[2]; 5 mg, after 1 Month",−6.0
same,"ISI Total Score Change from Study Baseline, Mean","[2]; 5 mg, after 3 Months",−8.6
same,"ISI Total Score Change from Study Baseline, Median","[2]; 5 mg, after 3 Months",−8.0
same,"ISI Total Score Change from Study Baseline, Mean","[2]; 5 mg, after 6 Months",−9.9
same,"ISI Total Score Change from Study Baseline, Median","[2]; 5 mg, after 6 Months",−10.0
same,ISI Total Score LSM treatment difference: Lemborexant/Placebo,[2]; [3],−1.47
same,ISI Total Score LSM treatment difference: Lemborexant/Placebo,[2]; [4],−2.02
same,ISI Total Score LSM treatment difference: Lemborexant/Placebo,[2]; [5],−2.10
same,"ISI Total Score (Items 1-7), Mean","[2]; 10 mg, Month 1",12.0
same,"ISI Total Score (Items 1-7), Median","[2]; 10 mg, Month 1",12.0
same,"ISI Total Score (Items 1-7), Mean","[2]; 10 mg, Month 3",10.2
same,"ISI Total Score (Items 1-7), Median","[2]; 10 mg, Month 3",10.0
same,"ISI Total Score (Items 1-7), Mean","[2]; 10 mg, Month 6",9.4
same,"ISI Total Score (Items 1-7), Median","[2]; 10 mg, Month 6",9.0
same,"ISI Total Score (Items 1-7), Mean","[2]; 10 mg, Study Baseline",19.0
same,"ISI Total Score (Items 1-7), Median","[2]; 10 mg, Study Baseline",19.0
same,"ISI Total Score Change from Study Baseline, Mean","[2]; 10 mg, after 1 Month",−7.2
same,"ISI Total Score Change from Study Baseline, Median","[2]; 10 mg, after 1 Month",−6.0
same,"ISI Total Score Change from Study Baseline, Mean","[2]; 10 mg, after 3 Months",−8.9
same,"ISI Total Score Change from Study Baseline, Median","[2]; 10 mg, after 3 Months",−9.0
same,"ISI Total Score Change from Study Baseline, Mean","[2]; 10 mg, after 6 Months",−9.8
same,"ISI Total Score Change from Study Baseline, Median","[2]; 10 mg, after 6 Months",−9.5
same,ISI Total Score LSM treatment difference: Lemborexant/Placebo,[2]; [6],−1.87
same,ISI Total Score LSM treatment difference: Lemborexant/Placebo,[2]; [7],−2.57
same,ISI Total Score LSM treatment difference: Lemborexant/Placebo,[2]; [8],−2.35
